Results from ChEMBL document CHEMBL1201862, “PubChem BioAssay data set” (2004).
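Step 1: Grow cells in 96-well plates. Step 2: Expose to compound for 48 hours at 5 concentrations. Step 3: Interpolate endpoints linearly; if unreached, use highest concentration. GI50 = concentration required for 50% inhibition of growth.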 The source made the active and inactive calls. Rule as the data show it: active = GI50 up to about 1.1 µM and inactive = higher.

What was measured:
Experiment in all cases: growth of human tumour cells (NCI), 48 h
Hs-578T = system: Hs-578T
SNB-19 = system: SNB-19
SK-MEL-28 = system: SK-MEL-28
NCI-H460 = system: NCI-H460
M14 = system: M14
NCI/ADR-RES = system: NCI/ADR-RES
PC-3 = system: PC-3
UO-31 = system: UO-31
SNB-75 = system: SNB-75
SK-MEL-5 = system: SK-MEL-5
K562 = system: K562
RXF 393 = system: RXF 393
HT-29 = system: HT-29
U-251 = system: U-251
COLO 205 = system: COLO 205
SK-MEL-2 = system: SK-MEL-2
OVCAR-3 = system: OVCAR-3
UACC-62 = system: UACC-62
LOX IMVI = system: LOX IMVI
SF-539 = system: SF-539

Structure (SMILES) | GI50 (Hs-578T) | GI50 (SNB-19) | GI50 (SK-MEL-28) | GI50 (NCI-H460) | GI50 (M14) | GI50 (NCI/ADR-RES) | GI50 (PC-3) | GI50 (UO-31) | GI50 (SNB-75) | GI50 (SK-MEL-5) | GI50 (K562) | GI50 (RXF 393) | GI50 (HT-29) | GI50 (U-251) | GI50 (COLO 205) | GI50 (SK-MEL-2) | GI50 (OVCAR-3) | GI50 (UACC-62) | GI50 (LOX IMVI) | GI50 (SF-539)
CCC(=O)C1(c2ccccc2)CCN(C)CC1 | > 100 µM (inactive) | > 100 µM (inactive) | > 100 µM (inactive) | > 100 µM (inactive) | > 100 µM (inactive) | > 100 µM (inactive) | > 100 µM (inactive) | > 100 µM (inactive) | > 100 µM (inactive) | > 100 µM (inactive) | > 100 µM (inactive) | > 100 µM (inactive) | > 100 µM (inactive) | > 100 µM (inactive) | > 100 µM (inactive) | – | – | – | – | –
C1CNCCNCCN1 | > 100 µM (inactive) | > 100 µM (inactive) | > 100 µM (inactive) | > 100 µM (inactive) | > 100 µM (inactive) | > 100 µM (inactive) | > 100 µM (inactive) | > 100 µM (inactive) | – | > 100 µM (inactive) | > 100 µM (inactive) | > 100 µM (inactive) | > 100 µM (inactive) | > 100 µM (inactive) | > 100 µM (inactive) | > 100 µM (inactive) | > 100 µM (inactive) | > 100 µM (inactive) | > 100 µM (inactive) | 26.2 µM (inactive)
NC(CSC(c1ccccc1)(c1ccccc1)c1ccccc1)C(=O)O (stereo unspecified) | 1.61 µM (inactive) | 1.22 µM (inactive) | 10 µM (inactive) | 0.658 µM (active) | 0.538 µM (active) | 6.67 µM (inactive) | 1.61 µM (inactive) | 18.5 µM (inactive) | 1.74 µM (inactive) | 0.69 µM (active) | 0.509 µM (active) | – | 2.94 µM (inactive) | 0.69 µM (active) | 0.665 µM (active) | 0.605 µM (active) | 1.7 µM (inactive) | 0.685 µM (active) | 0.802 µM (active) | 0.396 µM (active)
O=c1c2cc([N+](=O)[O-])cnc2sn1-c1ccc(Oc2ccccc2)cc1 | 18.6 µM (inactive) | 32.6 µM (inactive) | 22.4 µM (inactive) | 74.1 µM (inactive) | 53.8 µM (inactive) | 32.8 µM (inactive) | 39.9 µM (inactive) | 56.6 µM (inactive) | 51.6 µM (inactive) | 88.5 µM (inactive) | – | – | 62.5 µM (inactive) | 29.9 µM (inactive) | > 100 µM (inactive) | 26.7 µM (inactive) | 36 µM (inactive) | 41.7 µM (inactive) | 44.9 µM (inactive) | 23.3 µM (inactive)
Clc1cc(Cl)cc(/N=C/C=C/Nc2cc(Cl)cc(Cl)c2)c1 | 19.1 µM (inactive) | 21.4 µM (inactive) | 25.3 µM (inactive) | 19.1 µM (inactive) | 22.3 µM (inactive) | 16.4 µM (inactive) | 16.4 µM (inactive) | 23.4 µM (inactive) | 13.1 µM (inactive) | 15.1 µM (inactive) | 23.6 µM (inactive) | 17.3 µM (inactive) | 14.7 µM (inactive) | 17.6 µM (inactive) | 16.5 µM (inactive) | 19.9 µM (inactive) | 13.7 µM (inactive) | 19.7 µM (inactive) | – | 21.6 µM (inactive)
CCOC(=O)/C1=C(\C)N(Cc2ccccc2)C(=O)c2ccccc2C(=O)c2c(OC(C)=O)ccc(OC(C)=O)c21 | 33.5 µM (inactive) | > 100 µM (inactive) | > 100 µM (inactive) | 39.4 µM (inactive) | – | 31.8 µM (inactive) | – | > 100 µM (inactive) | > 100 µM (inactive) | 33.3 µM (inactive) | 42.9 µM (inactive) | 33.2 µM (inactive) | 40.2 µM (inactive) | > 100 µM (inactive) | 78.7 µM (inactive) | 97.5 µM (inactive) | 23.1 µM (inactive) | 53.2 µM (inactive) | > 100 µM (inactive) | > 100 µM (inactive)
CN(C)CCCNC(=O)N/N=C/c1ccc([N+](=O)[O-])cc1 | 46.7 µM (inactive) | > 100 µM (inactive) | > 100 µM (inactive) | > 100 µM (inactive) | > 100 µM (inactive) | > 100 µM (inactive) | > 100 µM (inactive) | > 100 µM (inactive) | 25.4 µM (inactive) | > 100 µM (inactive) | > 100 µM (inactive) | – | > 100 µM (inactive) | > 100 µM (inactive) | > 100 µM (inactive) | > 100 µM (inactive) | > 100 µM (inactive) | > 100 µM (inactive) | – | 82.2 µM (inactive)
